Assay results as given in the supplement of paper PMC10307832.

Legend:
Assay in all cases: relative viability (nuclei count vs DMSO), 5 days (fraction); higher = more cells survive
Carfilzomib + Foretinib = compound: CC(C)C[C@H](NC(=O)[C@H](CCc1ccccc1)NC(=O)CN1CCOCC1)C(=O)N[C@@H](Cc1ccccc1)C(=O)N[C@@H](CC(C)C)C(=O)[C@@]1(C)CO1 [Carfilzomib] + COc1cc2c(Oc3ccc(NC(=O)C4(C(=O)Nc5ccc(F)cc5)CC4)cc3F)ccnc2cc1OCCCN1CCOCC1 [Foretinib] (partner 0.25 µM)
Procedure, shortened: (§1)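 Five library-drug doses in √10 steps were combined with a fixed anchor-drug dose, or a single drug was given alone, by pin tool to lung cancer cell lines in 1536-well plates the day after seeding. Nuclei were stained and counted after 5 days. Relative viability is the nuclei count in treated wells over that in vehicle wells, taken as the median of duplicate plates.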

Crizotinib + Dasatinib = compound: C[C@@H](Oc1cc(-c2cnn(C3CCNCC3)c2)cnc1N)c1c(Cl)ccc(F)c1Cl [Crizotinib] + Cc1nc(Nc2ncc(C(=O)Nc3c(C)cccc3Cl)s2)cc(N2CCN(CCO)CC2)n1 [Dasatinib] (partner 0.075 µM)
Procedure, shortened: as §1

Olaparib + Crizotinib = compound: O=C(c1cc(Cc2n[nH]c(=O)c3ccccc23)ccc1F)N1CCN(C(=O)C2CC2)CC1 [Olaparib] + C[C@@H](Oc1cc(-c2cnn(C3CCNCC3)c2)cnc1N)c1c(Cl)ccc(F)c1Cl [Crizotinib] (partner 1 µM)
Procedure, shortened: as §1

Olaparib + Alpelisib = compound: O=C(c1cc(Cc2n[nH]c(=O)c3ccccc23)ccc1F)N1CCN(C(=O)C2CC2)CC1 [Olaparib] + Cc1nc(NC(=O)N2CCC[C@H]2C(N)=O)sc1-c1ccnc(C(C)(C)C(F)(F)F)c1 [Alpelisib] (partner 2 µM)
Procedure, shortened: as §1

Cell Line	relative viability (Carfilzomib + Foretinib; first compound 0.001 µM)	relative viability (Carfilzomib + Foretinib; first compound 0.003162 µM)	relative viability (Carfilzomib + Foretinib; first compound 0.01 µM)	relative viability (Carfilzomib + Foretinib; first compound 0.03162 µM)	relative viability (Carfilzomib + Foretinib; first compound 0.1 µM)	relative viability (Crizotinib + Dasatinib; first compound 0.01 µM)	relative viability (Crizotinib + Dasatinib; first compound 0.03162 µM)	relative viability (Crizotinib + Dasatinib; first compound 0.1 µM)	relative viability (Crizotinib + Dasatinib; first compound 0.3162 µM)	relative viability (Crizotinib + Dasatinib; first compound 1 µM)	relative viability (Olaparib + Crizotinib; first compound 0.08 µM)	relative viability (Olaparib + Crizotinib; first compound 0.253 µM)	relative viability (Olaparib + Crizotinib; first compound 2.53 µM)	relative viability (Olaparib + Crizotinib; first compound 8 µM)	relative viability (Olaparib + Alpelisib; first compound 0.08 µM)	relative viability (Olaparib + Alpelisib; first compound 0.253 µM)	relative viability (Olaparib + Alpelisib; first compound 2.53 µM)	relative viability (Olaparib + Alpelisib; first compound 8 µM)
201T	1.13	1.14	1.16	1.02	0.29	0.599	0.628	0.614	0.548	0.569	1.01	1	1.01	0.973	0.985	0.938	1.01	0.98
A549	0.86	0.966	0.946	0.0732	0.0218	–	–	–	–	–	0.884	0.654	0.777	0.358	0.822	0.63	0.671	0.589
A-427	1.02	1.13	1.09	0.474	0.121	0.696	0.765	0.687	–	0.719	0.958	0.882	0.705	0.71	1.14	1.06	0.855	0.809
ABC-1	0.912	0.815	0.292	0.17	0.224	–	0.534	0.54	0.501	0.616	1.57	1.04	1.19	0.961	0.958	1	0.96	0.981
BEN	0.575	0.69	0.577	0.577	0.339	0.295	0.311	0.27	0.224	0.312	0.856	0.82	1	0.931	1.02	1.02	1.19	0.995
CAL-12T	1.08	1.1	1.06	0.807	0.103	0.407	0.47	0.394	–	0.299	0.917	0.575	0.95	0.572	1.79	1.03	1.25	1.12
COR-L23	0.991	1.16	0.996	0.196	0.0831	0.508	0.424	0.519	0.437	0.533	0.852	0.58	0.515	0.274	0.811	0.586	0.532	0.357
COR-L 105	1.31	1.13	1.05	0.779	0.26	0.36	0.328	0.324	0.303	0.257	0.866	0.668	0.621	0.522	1.17	1.02	0.87	0.639
Calu-6	0.889	0.933	0.842	0.127	0.0591	–	–	–	–	–	1.08	0.662	0.74	0.573	1.08	1.04	0.965	0.729
ChaGo-K-1	0.941	0.991	0.859	0.62	0.172	0.58	0.573	0.487	0.424	0.624	1.26	1.06	1.31	0.862	–	–	–	–
EBC-1	0.0996	0.124	0.121	0.0586	0.0611	–	–	–	–	–	0.206	0.178	0.203	0.186	0.901	0.794	0.68	0.633
EKVX	0.51	0.945	1.24	0.309	0.765	0.372	0.572	0.514	0.492	0.648	1.13	0.831	1.08	0.98	1.11	0.872	0.844	0.903
EMC-BAC-2	1.02	1.08	1.12	0.975	0.221	0.369	0.313	0.282	0.363	0.331	0.767	0.727	0.638	0.603	0.737	0.751	0.636	0.621
EPLC-272H	0.901	0.764	0.601	0.0828	0.0461	0.426	0.382	0.445	0.366	0.401	1.06	0.751	1.07	0.864	1.03	0.871	1.09	0.789
H3255	0.876	0.952	0.939	0.815	0.327	0.381	0.462	0.422	0.393	0.258	0.901	0.913	0.885	0.814	0.751	0.752	0.652	0.647
HARA	0.93	0.963	1.1	0.0689	0.0561	0.28	0.279	0.256	–	0.198	1.04	0.93	1.08	0.803	0.935	0.728	0.959	0.76
HCC-15	0.96	1.19	1.12	0.589	0.149	0.557	0.573	0.639	–	0.562	0.96	0.75	0.851	0.69	0.988	0.815	0.905	0.724
HCC-44	–	–	–	–	–	–	–	–	–	–	0.914	0.729	0.841	0.825	0.89	0.721	0.914	0.839
HCC-78	0.541	0.576	0.581	0.571	0.322	–	0.335	0.448	0.361	0.322	0.395	0.356	0.396	0.368	0.424	0.328	0.445	0.365
HCC-366	0.933	0.963	0.916	0.648	0.121	0.592	0.649	0.618	–	0.458	0.517	0.473	0.238	0.145	0.392	0.31	0.3	0.15

Cell Line	relative viability (Carfilzomib + Foretinib; first compound 0.001 µM)	relative viability (Carfilzomib + Foretinib; first compound 0.003162 µM)	relative viability (Carfilzomib + Foretinib; first compound 0.01 µM)	relative viability (Carfilzomib + Foretinib; first compound 0.03162 µM)	relative viability (Carfilzomib + Foretinib; first compound 0.1 µM)	relative viability (Crizotinib + Dasatinib; first compound 0.01 µM)	relative viability (Crizotinib + Dasatinib; first compound 0.03162 µM)	relative viability (Crizotinib + Dasatinib; first compound 0.1 µM)	relative viability (Crizotinib + Dasatinib; first compound 0.3162 µM)	relative viability (Crizotinib + Dasatinib; first compound 1 µM)	relative viability (Olaparib + Crizotinib; first compound 0.08 µM)	relative viability (Olaparib + Crizotinib; first compound 0.253 µM)	relative viability (Olaparib + Crizotinib; first compound 2.53 µM)	relative viability (Olaparib + Crizotinib; first compound 8 µM)	relative viability (Olaparib + Alpelisib; first compound 0.08 µM)	relative viability (Olaparib + Alpelisib; first compound 0.253 µM)	relative viability (Olaparib + Alpelisib; first compound 2.53 µM)	relative viability (Olaparib + Alpelisib; first compound 8 µM)
HCC-827	1.09	1.06	1.08	0.928	0.387	0.287	0.289	0.255	0.225	0.326	0.941	0.908	0.949	0.814	1.02	0.934	0.828	0.876
HOP-62	1.12	1.13	0.938	0.328	0.0784	0.581	0.637	0.613	0.663	0.716	1.07	0.902	0.792	0.631	1.25	0.774	0.754	0.782
IA-LM	1.22	1.23	0.899	0.0144	0.0167	–	–	–	–	–	1.14	0.877	0.583	0.54	0.929	0.738	0.76	0.509
LC-2-ad	0.881	1.01	1.08	0.903	0.221	0.46	0.586	0.595	0.382	0.453	0.368	0.388	0.472	0.406	0.893	0.746	0.863	0.695
LCLC-97TM1	0.958	0.874	0.893	0.529	0.25	0.827	0.763	0.784	0.816	0.846	0.409	0.35	0.365	0.305	0.256	0.219	0.271	0.19
LCLC-103H	0.772	0.714	0.814	0.646	0.225	0.479	0.418	0.416	0.497	0.484	1.15	1.04	1.04	0.985	1	0.928	1.09	0.923
LK-2	1.24	1.25	1.42	0.144	0.16	0.369	0.338	0.253	–	0.285	0.177	0.181	0.192	0.186	1.07	1.03	1.25	0.945
LOU-NH91	0.934	1.04	0.875	0.303	0.224	0.523	0.547	0.623	0.554	0.486	0.785	0.71	0.721	0.744	0.783	0.758	0.745	0.647
LU99A	0.943	0.772	0.847	0.565	0.246	0.434	0.565	0.501	0.55	0.566	0.522	0.495	0.427	0.42	0.608	0.487	0.471	0.422
LXF-289	1	0.945	0.948	0.464	0.0789	0.306	0.209	0.223	0.184	0.247	0.907	0.799	0.889	0.875	1.16	1.02	1.07	1.03
NCI-H23	0.873	1.11	1.09	0.188	0.134	0.763	0.83	0.645	–	0.742	0.673	0.444	0.492	0.274	0.658	0.546	0.539	0.384
NCI-H522	–	–	–	–	–	0.945	–	0.875	0.938	0.944	–	–	–	–	–	–	–	–
NCI-H1299	1.03	1.02	1.14	0.597	0.117	–	–	–	–	–	1.06	0.903	0.986	0.95	1.03	1	1.07	1.03
NCI-H1395	0.981	1.07	0.954	0.527	0.329	0.388	0.376	0.409	0.391	0.358	–	–	–	–	1	0.748	0.662	0.504
NCI-H1623	0.838	0.906	1.14	0.455	0.514	0.455	0.502	0.499	0.454	0.505	–	–	–	–	–	–	–	–
NCI-H1650	1.22	0.965	0.954	0.125	0.321	0.273	0.299	0.311	0.362	0.299	1.13	0.864	1.15	0.965	–	–	–	–
NCI-H1703	–	0.421	0.231	0.126	0.154	–	–	–	–	–	1.07	0.734	0.903	0.522	0.45	0.464	0.391	0.412
NCI-H1792	–	–	–	–	–	0.706	0.829	0.733	–	0.936	1.03	0.82	0.843	0.794	0.675	0.596	0.56	0.506
NCI-H2342	1.04	1.06	1.08	0.988	0.621	0.302	0.334	0.303	0.349	0.291	–	–	–	–	–	–	–	–
SW 900	1.01	0.999	0.315	0.0988	0.116	0.449	0.518	0.763	0.597	0.633	–	–	–	–	–	–	–	–
